# Results: patent US6627623B2, “Inducing cell apoptosis and treating cancer using 1-O-acetylbritannilactone or 1,6-O,O-diacetylbritannilactone” (priority 2001, dated 2003)
# Values joined by “and” are separate entries in the source; they are usually repeats but may differ in a detail not shown here. Equal values may be shown once.
# How the values were obtained:
# Bcl-2 [1] = experiment: Bcl-2 phosphorylation in a prostate cancer cell line; assay type: cell-based
# Protocol: (§1) Experiments were performed to determine the activity of two of the sesquiterpene compounds isolated from Inula britannica, OABL and OODABL, as cancer preventative agents. Using a Western blot technique, the ability of these compounds to phosphorylate Bcl-2 in cancer cells was examined. […] OODABL induced Bcl-2 phosphorylation at lower effective doses, 2.5 and 5 μM.
# In a prostate cancer cell line, these compounds were also able to induce Bcl-2 phosphorylation. OODABL induced Bcl-2 phosphorylation at a dose of 5 μM while OABL induced Bcl-2 phosphorylation at a dose of 10 μM.
# PARP = PARP cleavage (apoptosis indicator) by Western blot in PA-1 cells; assay type: cell-based; conditions: 24 hours
# Protocol: Using cleavage of PARP as an indicator of apoptosis, the compositions of the present invention were tested in PA-1 ovary cells. PARP is a 116 kD nuclear poly (ADP-ribose)polymerase that appears to be involved in DNA-repair, predominantly in response to environmental stress (Satoh, M. S. and T. Lindahl. 1992. Nature 356:356-358). PARP is important for cells to maintain their viability. Cleavage of PARP facilitates cellular disassembly and serves as a marker of cells undergoing apoptosis (Oliver, F. J. et al. 1998. J. Biol. Chem. 273:33533-33539). This protein can be cleaved by many ICE caspases to form a 85 kD protein in cells undergoing apoptosis. PA-1 cells were treated with OODABL for 24 hours. Cells were lysed and PARP cleavage was measured by Western Blot using a monoclonal antibody to PARP (Pharmingen, Inc., San Diego, Calif.). OABL induced PARP cleavage at doses of 10 and 20 μM, while OODABL induced PARP cleavage at a dose of 5 μM.
# Bcl-2 [2] = experiment: Bcl-2 phosphorylation in OVCAR ovarian cancer cells; assay type: cell-based
# Protocol: as §1
# (§2) In two ovarian cancer cell lines, OVCAR and PA-1, similar results were seen. In OVCAR cells, OODABL induced Bcl-2 phosphorylation at a dose of 5 μM, while OABL induced Bcl-2 phosphorylation at a dose of 10 μM. In PA-1 cells, OODABL induced Bcl-2 phosphorylation at a dose of 5 μM, while OABL induced Bcl-2 phosphorylation at a dose of 10 μM.
# PA-1 cells = experiment: MTT cell viability assay, PA-1; assay type: cell-based
# Protocol: (§3) Cell viability was then assessed in a microculture tetrazolium/formazan assay (MTT; Scudiero, D. A. et al. 1988. Cancer Res. 48:4827-4833) using a variety of cell lines. Absorbance was measured at 550 nm and cell viability was expressed as the percentage of drug treated cells relative to that of controls. The IC50 was then defined as the concentration of drug that produced a 50% decrease in cell viability relative to controls. OODABL was first tested in a variety of cell lines. […] In NIH 3T3 (normal mouse fibroblasts) cells treated with various concentrations of OODABL (1, 10, 20 and 50 μM OODABL), cell viability was decreased in a dose-dependent manner with an IC50 of 50 μM.
# (§4) OABL was then tested in some of these same cell lines. In MCF-7 cells, OABL was tested at doses of 0.3 nm, 3 nm, 30 nm, 300 nm, 3 μM, and 30 μM.
# DU-145 cells = experiment: MTT cell viability assay, DU-145; assay type: cell-based
# Protocol: as §3, §4
# Bcl-2 [3] = experiment: Bcl-2 phosphorylation in PA-1 ovarian cancer cells; assay type: cell-based; conditions: PA-1 cells
# Protocol: as §1, §2
# Bcl-2 [4] = experiment: Bcl-2 phosphorylation by Western blot in MCF-7 cells; assay type: cell-based; conditions: MCF-7 breast cancer cells
# Protocol: as §1
# RKO cells = experiment: Clonogenic assay, RKO; assay type: cell-based; conditions: 15 days, read-out: IC50 clonogenic assay (colonies counted)
# Protocol: (§5) Cell cytotoxicity was also assessed by a clonogenic assay. MCF-7 breast cells were treated with various concentrations of OODABL (625 nm, 1.25, 2.5, 5 and 10 μM) for 15 days and cells were then stained with methylene blue and colonies counted. […] PC-3 prostate cells were treated with various concentrations of OODABL (20 and 200 nm, and 2 and 20 μM) for 15 days and cells were then stained with methylene blue and colonies counted. The IC50 was in the range of 200 nm OODABL. RKO cells were treated with various concentrations of OODABL (20 and 200 nm, and 2 and 20 μM) for 15 days and cells were then stained with methylene blue and colonies counted. The IC50 was in the range of 20 μM OODABL. Baby rat kidney cells were transformed with E1A and transfected with the Bcl-2 gene to form BRK-4B-Bcl-2 cells. These cells were treated with various concentrations of OODABL (20 and 200 nm, and 2, 10 and 20 μM) for 15 days and cells were then stained with methylene blue and colonies counted. The IC50 was in the range of 200 nM OODABL. Baby rat kidney cells were transformed with E1A and transfected with Bcl-2 gene in which phosphorylation sites were mutated to form phosphomutant BRK-4B-Bcl-2 cells. These cells were treated with various concentrations of OODABL (20 and 200 nm, and 2 and 20 μM) for 15 days and cells were then stained with methylene blue and colonies counted. […]
# MCF-7 cells = experiment: MTT cell viability assay, MCF-7; assay type: cell-based
# Protocol: as §3, §4
# HL-60 cells = experiment: TUNEL assay (APO-BRDU flow cytometry), late apoptosis; assay type: cell-based; conditions: 12 hours
# Protocol: In a TUNEL assay, the effect of OODABL on late apoptosis was examined. HL-60 cells lines were subjected to flow cytometry analysis using APO-BRDU. Apoptosis was detected by incorporation of Br-dUTP using a fluorescein labeled anti-BrdU monoclonal antibody after treatment with a vehicle control, 1 μM camptothecin or 20 μM OODABL for 12 hours.
# [5] = system: Bcl-2 (phosphorylation sites mutated); experiment: Bcl-2 phosphorylation by Western blot in mutated BRK-4B-Bcl-2 cells; assay type: cell-based; conditions: mutated rat kidney cells, 12 hours
# Protocol: (§6) The level of Bcl-2 phosphorylation was then assessed in the non-mutated and mutated BRK-4B-Bcl-2 cells using a Western blot assay. Cells were initially treated for 12 hours with the test compound, OODABL (at concentrations of 10, 20, 30, 40, or 60 μM). Taxol was used as a positive control at a concentration of 5 μM. Cells were then lysed in ice cold radio-immune precipitation buffer with inhibitors. Equivalent amounts of proteins were electrophoresed by 12% dodecyl sulfate-polyacrylamide gel electrophoresis and transferred to nitrocellulose. Bcl-2 and phosphorylated Bcl-2 proteins were detected using a monoclonal Bcl-2 primary antibody and a secondary goat anti-mouse horseradish peroxidase conjugated antibody followed by enhanced chemiluminescence detection.
# Bcl-2 [6] = experiment: Bcl-2 phosphorylation by Western blot in non-mutated BRK-4B-Bcl-2 cells; assay type: cell-based, rat; conditions: 12 hours
# Protocol: as §6
# [7] = system: NIH 3T3 (normal mouse fibroblasts) cells; experiment: MTT cell viability assay, NIH 3T3; assay type: cell-based
# Protocol: as §3
# [8] = system: phosphomutant BRK-4B-Bcl-2 cells; experiment: Clonogenic assay, phosphomutant BRK-4B-Bcl-2; assay type: cell-based, rat; conditions: 15 days, read-out: IC50 clonogenic assay (colonies counted)
# Protocol: as §5
# [9] = system: microtubules (tubulin) in MCF-7 cells; experiment: Microtubule indirect immunofluorescence in MCF-7 cells; assay type: cell-based; conditions: 12 hours
# Protocol: The effect of OODABL on microtubules was examined by indirect immunofluorescence of MCF-7 cells using an antibody to tubulin after 12 hours treatment with either a vehicle control, 10 μM paclitaxel (positive control), or 20 μM OODABL.
# BRK-4B-Bcl-2 cells = experiment: Clonogenic assay, BRK-4B-Bcl-2; assay type: cell-based, rat; conditions: 15 days, read-out: IC50 clonogenic assay (colonies counted)
# Protocol: as §5
# PC-3 prostate cells = experiment: Clonogenic assay, PC-3; assay type: cell-based; conditions: PC-3 cells, 15 days; read-out: IC50 clonogenic assay (colonies counted)
# Protocol: as §5
# [10] = system: breast cancer cell line T47D; experiment: Cell cycle analysis by flow cytometry; assay type: cell-based; conditions: T47D cells, 20 μM, compared to control cells
# Protocol: The effect of OODABL on cell cycle was analyzed by flow cytometery using breast cancer cell lin T47D.
smiles,measurement,setting,value
"C=C1C(=O)OC2CC(C)=C(C(C)CCCOC(C)=O)C(O)C12 (stereo not drawn) [OABL, 1-O-acetylbritannilactone]",dose inducing Bcl-2 phosphorylation,Bcl-2 [1],10 µM
same,dose inducing PARP cleavage,PARP,10 µM and 20 µM
same,dose inducing Bcl-2 phosphorylation,Bcl-2 [2],10 µM
same,IC50,PA-1 cells,~2000 nM
same,"cell viability (MTT), result in words","DU-145 cells; Du-145 cells, 4.68-100 μM",decreased cell viability
same,dose inducing Bcl-2 phosphorylation,Bcl-2 [3],10 µM
same,effective dose inducing Bcl-2 phosphorylation,Bcl-2 [4],10 µM and 20 µM
"C=C1C(=O)OC2CC(C)=C(C(C)CCCOC(C)=O)C(OC(C)=O)C12 (stereo not drawn) [OODABL, 1,6-O,O-diacetylbritannilactone]",IC50,RKO cells,~20 µM
same,IC50,MCF-7 cells,< 12.5 µM
same,late apoptosis (Br-dUTP incorporation),HL-60 cells; 20 μM,induce apoptosis
same,dose inducing Bcl-2 phosphorylation,Bcl-2 [1],5 µM
same,level of Bcl-2 phosphorylation,[5]; 10-60 μM,no phosphorylation evident
same,level of Bcl-2 phosphorylation,"Bcl-2 [6]; non-mutated cells, 10, 20, 30, 40, or 60 μM",dose-dependent increase in Bcl-2 phosphorylation
same,IC50,[7],50 µM
same,dose inducing PARP cleavage,PARP,5 µM
same,dose inducing Bcl-2 phosphorylation,Bcl-2 [2],5 µM
same,IC50,PA-1 cells,< 7820 nM
same,IC50,[8],~2000 nM
same,IC50,DU-145 cells; DU-145 cells,< 15.6 µM
same,effect on microtubules,[9]; 20 μM,polymerized microtubules
same,IC50,BRK-4B-Bcl-2 cells,~200 nM
same,IC50,PC-3 prostate cells,~200 nM
same,effect on cell cycle,[10],arrested cells at the G2/M phase
same,dose inducing Bcl-2 phosphorylation,Bcl-2 [3],5 µM
same,effective dose inducing Bcl-2 phosphorylation,Bcl-2 [4],2.5 µM and 5 µM
"CC[C@@]1(O)C(=O)OCc2c1cc1n(c2=O)Cc2cc3ccccc3nc2-1 [camptothecin, reference compound]",late apoptosis (Br-dUTP incorporation),"HL-60 cells; 1 μM, positive control",induce apoptosis
"CC(=O)O[C@H]1C(=O)[C@@]2(C)[C@H]([C@H](OC(=O)c3ccccc3)[C@]3(O)C[C@H](OC(=O)[C@H](O)[C@@H](NC(=O)c4ccccc4)c4ccccc4)C(C)=C1C3(C)C)[C@]1(OC(C)=O)CO[C@@H]1C[C@@H]2O [paclitaxel, reference compound]",level of Bcl-2 phosphorylation,[5]; 5 μM,no phosphorylation evident
same,level of Bcl-2 phosphorylation,"Bcl-2 [6]; non-mutated cells, 5 μM, positive control",increased in protein phosphorylation
same,effect on microtubules,"[9]; 10 μM, positive control",polymerized microtubules
same,effective dose inducing Bcl-2 phosphorylation,Bcl-2 [4],100 µM
